Like-named read-outs stand apart in the source and are kept apart here.
Columns and labels:
DLD1 BRCA2 (−/−) cells = assay: DLD1 viability assay (CellTiter-Glo, 7 days), DLD1 BRCA2 (−/−); format: cell-based; conditions: read-out: Viability IC50 (μM) DLD1 BRCA2 null
Method: (§1) The seeding densities are pre-determined from the growth curve kinetics performed to ensure log linear phase of cell growth for these 2 cell lines. These assay plates are then placed in the incubator at 37° C., 5% CO2, relative humidity>90% for a few hours before addition of test compounds. Compounds are dispensed using the Tecan HPD300 or Echo based on the plate map in the appropriate wells of the 384-well plates. […] After addition of the test compounds, the plates are incubated at 37° C., 5% CO2, relative humidity>90% for 7 days. CellTiter-Glo (Promega Cat. No. G7573), ATP detection reagent is prepared according to manufacturer's specifications. Cell assay plates are removed from incubator and bring to room temperature (RT) by letting them sit at bench top for at least 15 min. Using the MultiDrop liquid handler or a multichannel pipette, 35 μL/well of CTG is added and the plates are then placed shakes for 5 seconds, RT. These plates are then incubated for 30 minutes in the dark at RT before measuring luminescence using Spectramax/Enspire/Ensight/Envision/PheraSTAR.

DLD1 WT cells = assay: DLD1 viability assay (CellTiter-Glo, 7 days), DLD1 WT; format: cell-based
Method: as §1

| IC50 (DLD1 BRCA2 (−/−) cells; Homo sapiens, DLD-1, 168 h) | IC50 (DLD1 WT cells; Homo sapiens, DLD-1, 168 h) | IC50 (DLD1 BRCA2 (−/−) cells) | IC50 (DLD1 WT cells) | SMILES |
| --- | --- | --- | --- | --- |
| 0.001 to 0.1 µM | > 10 µM |  |  | COc1cnc(Cl)cc1-c1cc(C)ncc1C(=O)Nc1nc2ncc([C@H]3CCOC(C)(C)C3)nc2s1 (single isomer, unassigned) [Example 379, (S or R)-2′-chloro-N-(6-(2,2-dimethyltetrahydro-2H-pyran-4-yl)thiazolo[4,5-b]pyrazin-2-yl)-5′-methoxy-6-methyl-[4,4′-bipyridine]-3-carboxamide] |
| 0.001 to 0.1 µM | > 10 µM |  |  | COc1cnc(Cl)cc1-c1cc(C)ncc1C(=O)Nc1nc2ncc(N3C[C@H](C)OC[C@@H]3C)nc2s1 [Example 412, 2′-chloro-N-(6-((2S,5S)-2,5-dimethylmorpholino)thiazolo [4,5-b]pyrazin-2-yl)-5′-methoxy-6-methyl-[4,4′-bipyridine]-3-carboxamide] |
| 0.001 to 0.1 µM | 7.5 to 10 µM |  |  | COc1cnc(Cl)cc1-c1cc(C)ncc1C(=O)Nc1nc2ncc(N3CCC(C4CC4)CC3)nc2s1 [Example 466, 2′-chloro-N-(6-(4-cyclopropylpiperidin-1-yl)thiazolo[4,5-b]pyrazin-2-yl)-5′-methoxy-6-methyl-[4,4′-bipyridine]-3-carboxamide] |
| 0.001 to 0.1 µM | > 10 µM |  |  | COc1cnc(Cl)cc1-c1cc(C)ncc1C(=O)Nc1nc2ncc(N3CCO[C@H](C)[C@@H]3C)nc2s1 (single isomer, unassigned) [Example 400, 2′-chloro-N-(6-((2R or S,3S or R)-2,3-dimethylmorpholino)thiazolo [4,5-b]pyrazin-2-yl)-5′-methoxy-6-methyl-[4,4′-bipyridine]-3-carboxamide] |
|  |  | 0.001 to 0.1 µM | > 10 µM | COc1cnc(Cl)cc1-c1cc(C)ncc1C(=O)Nc1nc2ncc(N3CCC(O)C(F)(F)C3)nc2s1 (single isomer, unassigned) [Example 458, (R or S)-2′-chloro-N-(6-(3,3-difluoro-4-hydroxypiperidin-1-yl)thiazolo[4,5-b]pyrazin-2-yl)-5′-methoxy-6-methyl-[4,4′-bipyridine]-3-carboxamide] |
| 0.001 to 0.1 µM | > 10 µM |  |  | COc1cnc(Cl)cc1-c1cc(C)ncc1C(=O)Nc1nc2ncc(N3CCOC4CCCC43)nc2s1 (centres unmarked) [Example 424, 2′-chloro-N-(6-(hexahydrocyclopenta[b][1, 4]oxazin-4(4aH)-yl)thiazolo[4,5-b]pyrazin-2-yl)-5′-methoxy-6-methyl-[4,4′-bipyridine]-3-carboxamide] |
| 0.001 to 0.1 µM | > 10 µM |  |  | COc1cnc(Cl)cc1-c1cc(C)ncc1C(=O)Nc1nc2ncc(-c3cccc(C(F)F)n3)nc2s1 [Example 446, 2′-chloro-N-(6-(6-(difluoromethyl)pyridin-2-yl)thiazolo[4,5-b]pyrazin-2-yl)-5′-methoxy-6-methyl-[4,4′-bipyridine]-3-carboxamide] |
| 0.001 to 0.1 µM | > 10 µM |  |  | COc1cnc(Cl)cc1-c1cc(C)ncc1C(=O)Nc1nc2ncc(N3CCC(C4COC4)CC3)nc2s1 [Example 464, 2′-chloro-5′-methoxy-6-methyl-N-(6-(4-(oxetan-3-yl)piperidin-1-yl)thiazolo[4,5-b]pyrazin-2-yl)-[4,4′-bipyridine]-3-carboxamide] |
| 0.001 to 0.1 µM | > 10 µM |  |  | COc1cnc(Cl)cc1-c1cc(C)ncc1C(=O)Nc1nc2ncc(C3=CCOC(C)C3)nc2s1 (centres unmarked) [Example 443, 2′-chloro-5′-methoxy-6-methyl-N-(6-(2-methyl-3,6-dihydro-2H-pyran-4-yl)thiazolo[4,5-b]pyrazin-2-yl)-[4,4′-bipyridine]-3-carboxamide] |

Second part, the compound before the results:

| SMILES | IC50 (DLD1 BRCA2 (−/−) cells; Homo sapiens, DLD-1, 168 h) | IC50 (DLD1 WT cells; Homo sapiens, DLD-1, 168 h) | IC50 (DLD1 BRCA2 (−/−) cells) | IC50 (DLD1 WT cells) |
| --- | --- | --- | --- | --- |
| COc1cnc(Cl)cc1-c1cc(C)ncc1C(=O)Nc1nc2ncc(N3CCC3)nc2s1 [Example 487, N-(6-(azetidin-1-yl)thiazolo[4,5-b]pyrazin-2-yl)-2′-chloro-5′-methoxy-6-methyl-[4,4′-bipyridine]-3-carboxamide] | 0.001 to 0.1 µM | > 10 µM |  |  |
| COc1cnc(Cl)cc1-c1cc(C)ncc1C(=O)Nc1nc2ncc([C@H]3CCN(CC(F)(F)F)C3)nc2s1 (single isomer, unassigned) [Example 364, (S or R)-2′-chloro-5′-methoxy-6-methyl-N-(6-(1-(2,2,2-trifluoroethyl)pyrrolidin-3-yl)thiazolo[4,5-b]pyrazin-2-yl)-[4,4′-bipyridine]-3-carboxamide] | 0.1 to 0.25 µM | > 10 µM |  |  |
| COc1cnc(Cl)cc1-c1cc(C)ncc1C(=O)Nc1nc2ncc(C3=CCC(C)(C#N)CC3)nc2s1 (centres unmarked) [Example 407, 2′-chloro-N-(6-(4-cyano-4-methylcyclohex-1-en-1-yl)thiazolo[4,5-b]pyrazin-2-yl)-5′-methoxy-6-methyl-[4,4′-bipyridine]-3-carboxamide] | 0.001 to 0.1 µM | > 10 µM |  |  |
| COc1cnc(Cl)cc1-c1cc(C)ncc1C(=O)Nc1nc2ncc(N3CCC[C@@H](C)C3)nc2s1 [Example 485, (R)-2′-chloro-5′-methoxy-6-methyl-N-(6-(3-methylpiperidin-1-yl)thiazolo[4,5-b]pyrazin-2-yl)-[4,4′-bipyridine]-3-carboxamide] | 0.1 to 0.25 µM | > 10 µM |  |  |
| COc1cnc(Cl)cc1-c1cc(C)ncc1C(=O)Nc1nc2ncc(C3=CCC(OC(F)(F)F)CC3)nc2s1 (centres unmarked) [Example 420, 2′-chloro-5′-methoxy-6-methyl-N-(6-(4-(trifluoromethoxy)cyclohex-1-en-1-yl)thiazolo[4,5-b]pyrazin-2-yl)-[4,4′-bipyridine]-3-carboxamide] | 0.001 to 0.1 µM | 7.5 to 10 µM |  |  |
| COc1cnc(Cl)cc1-c1cc(C)ncc1C(=O)Nc1nc2ncc(N3CCOC(C(F)F)C3)nc2s1 (centres unmarked) [Example 429, 2′-chloro-N-(6-(2-(difluoromethyl)morpholino)thiazolo[4,5-b]pyrazin-2-yl)-5′-methoxy-6-methyl-[4,4′-bipyridine]-3-carboxamide] | 0.001 to 0.1 µM | > 10 µM |  |  |
| COc1cnc(Cl)cc1-c1cc(C)ncc1C(=O)Nc1nc2ncc(N3CCC(C(F)(F)F)CC3)nc2s1 [Example 472, 2′-chloro-5′-methoxy-6-methyl-N-(6-(4-(trifluoromethyl)piperidin-1-yl)thiazolo[4,5-b]pyrazin-2-yl)-[4,4′-bipyridine]-3-carboxamide] | 0.001 to 0.1 µM | 5 to 7.5 µM |  |  |
| COc1cnc(Cl)cc1-c1cc(C)ncc1C(=O)Nc1nc2ncc(C3CCC(OC(F)F)CC3)nc2s1 (centres unmarked) [Example 398, 2′-chloro-N-(6-(4-(difluoromethoxy)cyclohexyl)thiazolo[4,5-b]pyrazin-2-yl)-5′-methoxy-6-methyl-[4,4′-bipyridine]-3-carboxamide] | 0.001 to 0.1 µM | > 10 µM |  |  |
| COc1cnc(Cl)cc1-c1cc(C)ncc1C(=O)Nc1nc2ncc(C3CCC(OC)(C(F)F)CC3)nc2s1 (centres unmarked) [Example 383, 2′-chloro-N-(6-(4-(difluoromethyl)-4-methoxycyclohexyl)thiazolo [4,5-b]pyrazin-2-yl)-5′-methoxy-6-methyl-[4,4′-bipyridine]-3-carboxamide] | 0.001 to 0.1 µM | > 10 µM |  |  |
| COc1cnc(Cl)cc1-c1cc(C)ncc1C(=O)Nc1nc2ncc(N3CCC(C)CC3)nc2s1 [Example 474, 2′-chloro-5′-methoxy-6-methyl-N-(6-(4-methylpiperidin-1-yl)thiazolo[4,5-b]pyrazin-2-yl)-[4,4′-bipyridine]-3-carboxamide] | 0.001 to 0.1 µM | 7.5 to 10 µM |  |  |
| COc1cnc(Cl)cc1-c1cc(C)ncc1C(=O)Nc1nc2ncc(N3CC[C@@](C)(O)[C@@H](F)C3)nc2s1 (single isomer, unassigned) [Example 376, 2′-chloro-N-(6-((3S or R,4R or S)-3-fluoro-4-hydroxy-4-methylpiperidin-1-yl)thiazolo[4,5-b]pyrazin-2-yl)-5′-methoxy-6-methyl-[4,4′-bipyridine]-3-carboxamide] | 0.001 to 0.1 µM | > 10 µM |  |  |
| COc1cnc(Cl)cc1-c1cc(C)ncc1C(=O)Nc1nc2ncc(C3=CCC(OC)(C(F)F)CC3)nc2s1 (centres unmarked) [Example 388, 2′-chloro-N-(6-(4-(difluoromethyl)-4-methoxycyclohex-1-en-1-yl)thiazolo[4,5-b]pyrazin-2-yl)-5′-methoxy-6-methyl-[4,4′-bipyridine]-3-carboxamide] | 0.001 to 0.1 µM | > 10 µM |  |  |
| COc1cnc(Cl)cc1-c1cc(C)ncc1C(=O)Nc1nc2ncc(N3CCC(CC#N)CC3)nc2s1 [Example 467, 2′-chloro-N-(6-(4-(cyanomethyl)piperidin-1-yl)thiazolo[4,5-b]pyrazin-2-yl)-5′-methoxy-6-methyl-[4,4′-bipyridine]-3-carboxamide] | 0.001 to 0.1 µM | > 10 µM |  |  |
| CNC1CCN(c2cnc3nc(NC(=O)c4cnc(C)cc4-c4cc(Cl)ncc4OC)sc3n2)CC1(F)F (centres unmarked) [Example 455, 2′-chloro-N-(6-(3,3-difluoro-4-(methylamino)piperidin-1-yl)thiazolo[4,5-b]pyrazin-2-yl)-5′-methoxy-6-methyl-[4,4′-bipyridine]-3-carboxamide] | 0.001 to 0.1 µM | > 10 µM |  |  |
| COc1cnc(Cl)cc1-c1cc(C)ncc1C(=O)Nc1nc2ncc(N3CCC(C(C)(C)O)CC3)nc2s1 [Example 480, 2′-chloro-N-(6-(4-(2-hydroxypropan-2-yl)piperidin-1-yl)thiazolo[4,5-b]pyrazin-2-yl)-5′-methoxy-6-methyl-[4,4′-bipyridine]-3-carboxamide] | 0.001 to 0.1 µM | > 10 µM |  |  |
| COc1cnc(Cl)cc1-c1cc(C)ncc1C(=O)Nc1nc2ncc(N3CCO[C@@H](C)C3)nc2s1 [Example 490, (S)-2′-chloro-5′-methoxy-6-methyl-N-(6-(2-methylmorpholino)thiazolo[4,5-b]pyrazin-2-yl)-[4,4′-bipyridine]-3-carboxamide] | 0.001 to 0.1 µM | > 10 µM |  |  |

Source: patent publication US20260015360A1 (MOMA Therapeutics, Inc., priority 2023, published 2026)
